Laboratory results taken from patent US10344060B2 (priority 2013, dated 2019).
pIC50: −log10 of the molar value.

Columns and labels:
[1] = biological target: hNav1.4 (Homo sapiens, UniProt P35499); experiment: cell-based; format: cell-based; conditions: Table 12
[2] = biological target: hNav1.7 (Homo sapiens, UniProt Q15858); experiment: cell-based; format: cell-based; conditions: for Nav1.4/Nav1.7 / Nav1.5/Nav1.7: ratio of PX tonic IC50 values, Table 11; for pIC50: Table 12, PatchXpress, tonic block, read-out: PX hNav1.7 Tonic IC50
Chain of hNav1.7 (Q15858 whole entry): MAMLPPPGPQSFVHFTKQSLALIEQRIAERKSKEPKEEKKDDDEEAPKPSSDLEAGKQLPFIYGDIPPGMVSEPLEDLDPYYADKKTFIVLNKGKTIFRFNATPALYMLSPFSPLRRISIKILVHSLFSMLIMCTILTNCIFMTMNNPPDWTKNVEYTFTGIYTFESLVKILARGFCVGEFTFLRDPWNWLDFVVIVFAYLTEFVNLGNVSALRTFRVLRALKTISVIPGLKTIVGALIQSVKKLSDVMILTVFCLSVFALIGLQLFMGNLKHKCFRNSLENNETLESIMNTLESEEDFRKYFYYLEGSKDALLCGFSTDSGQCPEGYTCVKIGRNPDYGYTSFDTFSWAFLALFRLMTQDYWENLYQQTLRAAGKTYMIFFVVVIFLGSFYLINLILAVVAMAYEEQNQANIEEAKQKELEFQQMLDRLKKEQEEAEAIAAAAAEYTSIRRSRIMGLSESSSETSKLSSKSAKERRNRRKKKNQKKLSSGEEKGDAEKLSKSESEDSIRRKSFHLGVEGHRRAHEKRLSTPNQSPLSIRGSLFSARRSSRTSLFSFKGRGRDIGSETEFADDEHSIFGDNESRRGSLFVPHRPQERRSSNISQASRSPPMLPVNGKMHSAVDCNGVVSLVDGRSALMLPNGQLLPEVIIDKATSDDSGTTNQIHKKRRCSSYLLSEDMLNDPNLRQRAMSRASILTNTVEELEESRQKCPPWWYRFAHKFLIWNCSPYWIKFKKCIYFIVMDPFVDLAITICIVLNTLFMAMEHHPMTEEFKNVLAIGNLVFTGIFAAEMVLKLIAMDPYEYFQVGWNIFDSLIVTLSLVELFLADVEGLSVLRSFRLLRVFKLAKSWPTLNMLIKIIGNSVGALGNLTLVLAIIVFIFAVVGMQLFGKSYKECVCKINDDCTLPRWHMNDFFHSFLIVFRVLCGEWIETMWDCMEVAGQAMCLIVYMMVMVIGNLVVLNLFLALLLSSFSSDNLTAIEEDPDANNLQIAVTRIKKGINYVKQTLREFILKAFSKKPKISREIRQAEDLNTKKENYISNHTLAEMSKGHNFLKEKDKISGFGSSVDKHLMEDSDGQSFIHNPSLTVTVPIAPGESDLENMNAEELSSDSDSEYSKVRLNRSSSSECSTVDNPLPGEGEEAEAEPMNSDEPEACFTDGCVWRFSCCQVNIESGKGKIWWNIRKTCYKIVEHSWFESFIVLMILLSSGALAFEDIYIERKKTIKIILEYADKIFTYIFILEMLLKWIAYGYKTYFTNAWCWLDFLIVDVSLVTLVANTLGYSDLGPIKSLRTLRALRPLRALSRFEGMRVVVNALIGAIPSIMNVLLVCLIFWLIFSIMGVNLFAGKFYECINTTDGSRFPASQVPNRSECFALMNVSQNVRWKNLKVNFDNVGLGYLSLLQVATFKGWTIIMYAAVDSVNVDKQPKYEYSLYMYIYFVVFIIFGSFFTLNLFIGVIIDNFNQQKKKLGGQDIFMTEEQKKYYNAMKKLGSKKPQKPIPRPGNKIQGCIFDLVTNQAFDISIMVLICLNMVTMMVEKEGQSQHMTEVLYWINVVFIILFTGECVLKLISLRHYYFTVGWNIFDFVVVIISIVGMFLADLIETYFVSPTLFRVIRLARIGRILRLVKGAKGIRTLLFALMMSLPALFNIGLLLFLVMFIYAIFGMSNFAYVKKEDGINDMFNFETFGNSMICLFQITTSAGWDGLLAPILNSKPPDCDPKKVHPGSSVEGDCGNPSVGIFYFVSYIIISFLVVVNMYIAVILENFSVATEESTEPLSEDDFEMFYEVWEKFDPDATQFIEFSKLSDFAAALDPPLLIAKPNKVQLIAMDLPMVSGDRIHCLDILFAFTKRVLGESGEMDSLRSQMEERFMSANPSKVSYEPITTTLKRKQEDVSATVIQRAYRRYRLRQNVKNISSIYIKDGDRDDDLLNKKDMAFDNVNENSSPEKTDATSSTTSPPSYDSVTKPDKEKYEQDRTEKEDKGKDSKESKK

Chain of hNav1.4 (P35499 whole entry): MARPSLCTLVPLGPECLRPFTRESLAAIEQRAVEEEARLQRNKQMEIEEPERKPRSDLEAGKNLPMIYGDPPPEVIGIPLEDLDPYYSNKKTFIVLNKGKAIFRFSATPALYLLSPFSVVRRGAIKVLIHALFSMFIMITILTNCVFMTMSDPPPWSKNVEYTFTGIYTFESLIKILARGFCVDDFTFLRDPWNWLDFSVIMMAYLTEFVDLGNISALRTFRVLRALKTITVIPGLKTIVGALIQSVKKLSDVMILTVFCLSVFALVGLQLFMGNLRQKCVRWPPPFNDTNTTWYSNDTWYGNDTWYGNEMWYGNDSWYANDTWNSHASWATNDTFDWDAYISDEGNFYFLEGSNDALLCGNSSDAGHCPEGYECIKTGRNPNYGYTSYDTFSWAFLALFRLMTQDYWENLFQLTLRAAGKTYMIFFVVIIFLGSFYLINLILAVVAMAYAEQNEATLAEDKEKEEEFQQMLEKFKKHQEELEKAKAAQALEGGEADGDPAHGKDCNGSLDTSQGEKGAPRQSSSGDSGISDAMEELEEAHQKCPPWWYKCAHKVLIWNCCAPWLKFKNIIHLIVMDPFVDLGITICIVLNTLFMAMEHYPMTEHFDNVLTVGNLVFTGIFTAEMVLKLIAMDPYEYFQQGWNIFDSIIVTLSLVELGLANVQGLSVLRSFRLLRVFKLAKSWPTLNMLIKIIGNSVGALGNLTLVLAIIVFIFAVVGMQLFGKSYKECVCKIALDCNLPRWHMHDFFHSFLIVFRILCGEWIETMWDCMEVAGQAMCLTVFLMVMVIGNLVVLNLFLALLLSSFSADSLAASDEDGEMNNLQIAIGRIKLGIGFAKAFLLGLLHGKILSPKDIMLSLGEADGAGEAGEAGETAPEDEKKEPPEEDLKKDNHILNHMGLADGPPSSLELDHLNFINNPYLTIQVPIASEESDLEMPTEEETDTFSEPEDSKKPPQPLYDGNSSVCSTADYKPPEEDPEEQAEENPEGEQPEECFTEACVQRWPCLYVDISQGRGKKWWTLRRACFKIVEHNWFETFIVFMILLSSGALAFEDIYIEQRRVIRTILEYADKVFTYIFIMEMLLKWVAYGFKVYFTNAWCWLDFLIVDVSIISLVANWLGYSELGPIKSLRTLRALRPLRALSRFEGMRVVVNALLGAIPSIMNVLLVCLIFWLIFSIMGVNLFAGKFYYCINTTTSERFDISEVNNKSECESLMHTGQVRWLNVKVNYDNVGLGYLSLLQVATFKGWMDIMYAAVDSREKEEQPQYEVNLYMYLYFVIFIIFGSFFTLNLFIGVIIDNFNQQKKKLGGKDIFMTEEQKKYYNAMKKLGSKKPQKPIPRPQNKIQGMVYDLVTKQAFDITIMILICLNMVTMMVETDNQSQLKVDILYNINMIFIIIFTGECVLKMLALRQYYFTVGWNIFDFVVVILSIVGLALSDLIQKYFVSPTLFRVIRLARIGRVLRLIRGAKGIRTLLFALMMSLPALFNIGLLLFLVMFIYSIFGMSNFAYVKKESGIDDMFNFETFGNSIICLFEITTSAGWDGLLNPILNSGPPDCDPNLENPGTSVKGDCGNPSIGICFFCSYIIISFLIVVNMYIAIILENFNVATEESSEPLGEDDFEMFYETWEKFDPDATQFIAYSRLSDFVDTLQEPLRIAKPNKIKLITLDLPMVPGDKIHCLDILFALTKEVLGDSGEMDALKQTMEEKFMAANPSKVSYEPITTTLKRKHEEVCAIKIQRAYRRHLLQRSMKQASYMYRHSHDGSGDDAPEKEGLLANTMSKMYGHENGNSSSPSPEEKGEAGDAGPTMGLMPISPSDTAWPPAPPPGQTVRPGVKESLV

Row | SMILES | Nav1.4/Nav1.7 [2] | Nav1.5/Nav1.7 [2] | also measured
1 | C#CC[C@H](N)C(=O)NCCCC[C@@H]1NC(=O)[C@H](CCCNC(=N)N)NC(=O)[C@H](CCCCN)NC(=O)[C@H](CO)NC(=O)[C@H](CC(=O)O)NC(=O)[C@@H]2CSSC[C@@H]3NC(=O)[C@H](CCCNC(=N)N)NC(=O)[C@H](CC(C)C)NC(=O)CNC(=O)[C@H](CCC(=O)O)NC(=O)[C@H](CSSC[C@H](NC(=O)[C@H](Cc4ccc(O)cc4)NC(=O)[C@@H](N)CCC)C(=O)N[C@@H](CCC(N)=O)C(=O)N[C@@H](CCCCN)C(=O)N[C@@H](Cc4c[nH]c5ccccc45)C(=O)N[C@@H](CC(C)C)C(=O)N[C@@H](Cc4c[nH]c5ccccc45)C(=O)N[C@@H]([C@@H](C)O)C(=O)N2)NC(=O)[C@H](CSSC[C@@H](C(=O)N[C@@H](CCCNC(=N)N)C(=O)N[C@@H](CCCCN)C(=O)N[C@@H](CCC(=O)O)C(=O)N[C@H](C(N)=O)[C@@H](C)CC)NC(=O)[C@H](Cc2c[nH]c4ccccc24)NC(=O)[C@H](CC(C)C)NC(=O)[C@H](CCCCN)NC3=O)NC1=O [compound 439] | – | – | pIC50 ([1]; PatchXpress, tonic block, read-out: PX hNav1.4 Tonic IC50): 6.52
2 | C#CC[C@H](N)C(=O)NCCCC[C@@H]1NC(=O)[C@H](CCCNC(=N)N)NC(=O)[C@H](CCCCN)NC(=O)[C@H](CO)NC(=O)[C@H](CC(=O)O)NC(=O)[C@@H]2CSSC[C@@H]3NC(=O)[C@H](CCCNC(=N)N)NC(=O)[C@H](CC(C)C)NC(=O)CNC(=O)[C@H](CCC(=O)O)NC(=O)[C@H](CSSC[C@H](NC(=O)[C@H](Cc4ccc(O)cc4)NC(=O)[C@@H](N)CCC)C(=O)N[C@@H](CCC(N)=O)C(=O)N[C@@H](CCCCN)C(=O)N[C@@H](Cc4c[nH]c5ccccc45)C(=O)N[C@@H](CCCC)C(=O)N[C@@H](Cc4c[nH]c5ccccc45)C(=O)N[C@@H]([C@@H](C)O)C(=O)N2)NC(=O)[C@H](CSSC[C@@H](C(=O)N[C@@H](CCCNC(=N)N)C(=O)N[C@@H](CCCCN)C(=O)N[C@@H](CCC(=O)O)C(=O)N[C@H](C(N)=O)[C@@H](C)CC)NC(=O)[C@H](Cc2c[nH]c4ccccc24)NC(=O)[C@H](CC(C)C)NC(=O)[C@H](CCCCN)NC3=O)NC1=O [compound 435] | – | – | Nav1.4/Nav1.7 ([1]; ratio of PX tonic IC50 values): 99
3 | CCCC[C@@H]1NC(=O)[C@H](Cc2c[nH]c3ccccc23)NC(=O)[C@H](CCCCN)NC(=O)[C@H](CCC(N)=O)NC(=O)[C@@H](NC(=O)[C@H](Cc2ccc(O)cc2)NC(=O)[C@@H](C)N)CSSC[C@@H]2NC(=O)[C@@H]3CSSC[C@@H](C(=O)N[C@@H](CCCNC(=N)N)C(=O)N[C@@H](CCCCN)C(=O)N[C@H](C(=O)N[C@H](C(N)=O)[C@@H](C)CC)[C@@H](C)CC)NC(=O)[C@H](Cc4c[nH]c5ccccc45)NC(=O)[C@H](CC(C)C)NC(=O)[C@H](CCCCN)NC(=O)[C@H](CSSC[C@H](NC(=O)[C@H]([C@@H](C)O)NC(=O)[C@H](Cc4c[nH]c5ccccc45)NC1=O)C(=O)N[C@@H](CC(=O)O)C(=O)N[C@@H](CO)C(=O)N[C@@H](CCCCN)C(=O)N[C@@H](CCCNC(=N)N)C(=O)N[C@@H](C)C(=O)N3)NC(=O)[C@H](CCCNC(=N)N)NC(=O)[C@H](CC(C)C)NC(=O)CNC(=O)[C@H](CCC(=O)O)NC2=O [compound 372] | 5 | 764 | –
4 | CCCC[C@@H]1NC(=O)[C@H](Cc2c[nH]c3ccccc23)NC(=O)[C@H](CCCCN)NC(=O)[C@H](CCC(N)=O)NC(=O)[C@@H](NC(=O)[C@H](Cc2ccc(O)cc2)NC(=O)[C@@H](N)CCC(C)C)CSSC[C@@H]2NC(=O)[C@@H]3CSSC[C@@H](C(=O)N[C@@H](CCCNC(=N)N)C(=O)N[C@@H](CCCCN)C(=O)N[C@H](C(=O)N[C@H](C(N)=O)[C@@H](C)CC)[C@@H](C)CC)NC(=O)[C@H](Cc4c[nH]c5ccccc45)NC(=O)[C@H](CC(C)C)NC(=O)[C@H](CCCCN)NC(=O)[C@H](CSSC[C@H](NC(=O)[C@H]([C@@H](C)O)NC(=O)[C@H](Cc4c[nH]c5ccccc45)NC1=O)C(=O)N[C@@H](CC(=O)O)C(=O)N[C@@H](CO)C(=O)N[C@@H](CCCCN)C(=O)N[C@@H](CCCNC(=N)N)C(=O)N[C@@H](C)C(=O)N3)NC(=O)[C@H](CCCNC(=N)N)NC(=O)[C@H](CC(C)C)NC(=O)CNC(=O)[C@H](CCC(=O)O)NC2=O [compound 377] | 13 | 615 | –
5 | CCCC[C@H](NC(=O)[C@H](Cc1ccc(O)cc1)NC(=O)[C@H](CCCCN)NC(=O)[C@H](CCCNC(=N)N)NC(=O)[C@@H]1CSSC[C@@H]2NC(=O)[C@H](C)NC(=O)[C@H](CCCNC(=N)N)NC(=O)[C@H](CCCCN)NC(=O)[C@H](CO)NC(=O)[C@H](CC(=O)O)NC(=O)[C@@H]3CSSC[C@H](NC(=O)[C@H](CCC(=O)O)NC(=O)[C@H](CC(C)C)NC(=O)CNC(=O)[C@H](CCC(=O)O)NC(=O)[C@H](CSSC[C@H](NC(=O)[C@@H](N)Cc4ccc(O)cc4)C(=O)N[C@@H](CCC(N)=O)C(=O)N[C@@H](CCCCN)C(=O)N[C@@H](Cc4c[nH]c5ccccc45)C(=O)N[C@@H](CCSC)C(=O)N[C@@H](Cc4c[nH]c5ccccc45)C(=O)N[C@@H]([C@@H](C)O)C(=O)N3)NC2=O)C(=O)N[C@@H](CCCCN)C(=O)N[C@@H](CC(C)C)C(=O)N[C@@H](Cc2c[nH]c3ccccc23)C(=O)N1)C(N)=O [compound 239] | 127 | >1575 | –
6 | C#CC[C@H](N)C(=O)N[C@@H](Cc1ccc(O)cc1)C(=O)N[C@H]1CSSC[C@@H]2NC(=O)[C@@H]3CSSC[C@@H](C(=O)N[C@@H](CCCNC(=N)N)C(=O)N[C@@H](CCCCN)C(=O)N[C@@H](CCC(=O)O)C(=O)N[C@H](C(N)=O)[C@@H](C)CC)NC(=O)[C@H](Cc4c[nH]c5ccccc45)NC(=O)[C@H](CC(C)C)NC(=O)[C@H](CCCCN)NC(=O)[C@H](CSSC[C@H](NC(=O)[C@H]([C@@H](C)O)NC(=O)[C@H](Cc4c[nH]c5ccc(Br)cc45)NC(=O)[C@H](CCCC)NC(=O)[C@H](Cc4c[nH]c5ccccc45)NC(=O)[C@H](CCCCN)NC(=O)[C@H](CCC(N)=O)NC1=O)C(=O)N[C@@H](CC(=O)O)C(=O)N[C@@H](CO)C(=O)N[C@@H](CCCCN)C(=O)N[C@@H](CCCNC(=N)N)C(=O)N[C@@H](C)C(=O)N3)NC(=O)[C@H](CCCNC(=N)N)NC(=O)[C@H](CC(C)C)NC(=O)CNC(=O)[C@H](CCC(=O)O)NC2=O [compound 850] | – | – | pIC50 [2]: 6.27
7 | C#CC[C@H](N)C(=O)N[C@@H](Cc1ccc(O)cc1)C(=O)N[C@H]1CSSC[C@@H]2NC(=O)[C@@H]3CSSC[C@@H](C(=O)N[C@@H](CCCNC(=N)N)C(=O)N[C@@H](CCCCN)C(=O)N[C@@H](CCC(=O)O)C(=O)N[C@H](C(N)=O)[C@@H](C)CC)NC(=O)[C@H](Cc4c[nH]c5ccccc45)NC(=O)[C@H](CC(C)C)NC(=O)[C@H](CCCCN)NC(=O)[C@H](CSSC[C@H](NC(=O)[C@H]([C@@H](C)O)NC(=O)[C@H](Cc4cccc5ccccc45)NC(=O)[C@H](CCCC)NC(=O)[C@H](Cc4c[nH]c5ccccc45)NC(=O)[C@H](CCCCN)NC(=O)[C@H](CCC(N)=O)NC1=O)C(=O)N[C@@H](CC(=O)O)C(=O)N[C@@H](CO)C(=O)N[C@@H](CCCCN)C(=O)N[C@@H](CCCNC(=N)N)C(=O)N[C@@H](C)C(=O)N3)NC(=O)[C@H](CCCNC(=N)N)NC(=O)[C@H](CC(C)C)NC(=O)CNC(=O)[C@H](CCC(=O)O)NC2=O [compound 846] | – | – | pIC50 [2]: 6.08
8 | CCCC[C@@H]1NC(=O)[C@H](Cc2c[nH]c3ccccc23)NC(=O)[C@H](CCCCN)NC(=O)[C@H](CCC(N)=O)NC(=O)[C@@H](NC(=O)[C@H](Cc2ccc(O)cc2)NC(=O)[C@H](CCC)NC(=O)[C@@H](N)CC(C)C)CSSC[C@@H]2NC(=O)[C@@H]3CSSC[C@@H](C(=O)N[C@@H](CCCNC(=N)N)C(=O)N[C@@H](CCCCN)C(=O)N[C@@H](CCC(=O)O)C(=O)N[C@H](C(N)=O)[C@@H](C)CC)NC(=O)[C@H](Cc4c[nH]c5ccccc45)NC(=O)[C@H](CC(C)C)NC(=O)[C@H](CCCCN)NC(=O)[C@H](CSSC[C@H](NC(=O)[C@H]([C@@H](C)O)NC(=O)[C@H](Cc4c[nH]c5ccccc45)NC1=O)C(=O)N[C@@H](CC(=O)O)C(=O)N[C@@H](CO)C(=O)N[C@@H](CCCCN)C(=O)N[C@@H](CCCNC(=N)N)C(=O)N[C@@H](CCCCNC(=O)CCOCCOCCOCCOCCOCCOCCOCCOCCOCCOCCOCCOCCN)C(=O)N3)NC(=O)[C@H](CCCNC(=N)N)NC(=O)[C@H](CC(C)C)NC(=O)CNC(=O)[C@H](CCC(=O)O)NC2=O [compound 470] | 34 | 372 | –
9 | CCCC[C@@H]1NC(=O)[C@H](Cc2c[nH]c3ccccc23)NC(=O)[C@H](CCCCN)NC(=O)[C@H](CCC(N)=O)NC(=O)[C@@H](NC(=O)[C@H](Cc2ccc(O)cc2)NC(=O)[C@@H](N)CC(C)C)CSSC[C@@H]2NC(=O)[C@@H]3CSSC[C@@H](C(=O)N[C@@H](CCCNC(=N)N)C(=O)N[C@@H](CCCCN)C(=O)N[C@H](C(=O)N[C@H](C(N)=O)[C@@H](C)CC)[C@@H](C)CC)NC(=O)[C@H](Cc4c[nH]c5ccccc45)NC(=O)[C@H](CC(C)C)NC(=O)[C@H](CCCCN)NC(=O)[C@H](CSSC[C@H](NC(=O)[C@H]([C@@H](C)O)NC(=O)[C@H](Cc4c[nH]c5ccccc45)NC1=O)C(=O)N[C@@H](CC(=O)O)C(=O)N[C@@H](CO)C(=O)N[C@@H](CCCCN)C(=O)N[C@@H](CCCNC(=N)N)C(=O)N[C@@H](C)C(=O)N3)NC(=O)[C@H](CCCNC(=N)N)NC(=O)[C@H](CC(C)C)NC(=O)CNC(=O)[C@H](CCC(=O)O)NC2=O [compound 361] | 0 | 0 | –
10 | CSCC[C@@H]1NC(=O)[C@H](Cc2c[nH]c3ccccc23)NC(=O)[C@H](CCCCN)NC(=O)[C@H](CCC(N)=O)NC(=O)[C@@H](NC(=O)[C@@H](N)Cc2ccc(O)cc2)CSSC[C@@H]2NC(=O)[C@@H]3CSSC[C@@H](C(=O)N[C@@H](CCCNC(=N)N)C(=O)N[C@@H](CCCCN)C(=O)N[C@@H](Cc4ccc(O)cc4)C(=O)N[C@@H](Cc4ccc5ccccc5c4)C(N)=O)NC(=O)[C@H](Cc4c[nH]c5ccccc45)NC(=O)[C@H](CC(C)C)NC(=O)[C@H](CCCCN)NC(=O)[C@H](CSSC[C@H](NC(=O)[C@H]([C@@H](C)O)NC(=O)[C@H](Cc4c[nH]c5ccccc45)NC1=O)C(=O)N[C@@H](CC(=O)O)C(=O)N[C@@H](CO)C(=O)N[C@@H](CCCCN)C(=O)N[C@@H](CCCNC(=N)N)C(=O)N[C@@H](C)C(=O)N3)NC(=O)[C@H](CCC(=O)O)NC(=O)[C@H](CC(C)C)NC(=O)CNC(=O)[C@H](CCC(=O)O)NC2=O [compound 233] | 265 | 433 | –
